Laboratory results reported in publication PMC12751012, “Nanoscale Direct-to-Biology Optimization and Structural Insights into Selective S. aureus TrmD Inhibitors” (Journal of Medicinal Chemistry, 2025).

Test system: S. aureus RN4220 lysate
Assay: Bacterial lysate carbamate cleavage assay (LC/MS)
Format: in vitro ADME, Staphylococcus aureus
Details: 400 μM, 16 h; for cleavage in S. aureus lysate: LC/MS; for degree of carbamate cleavage to 8h: S. aureus lysate
Description: An overnight culture of S. aureus RN4220 was set up in TSB medium (BD Bacto Tryptic Soy Broth). The next day, a 150 mL day culture was started at an initial OD600 of 0.1. The culture was incubated at 200 rpm shaking at 37 °C. The bacteria were harvested after 3 h and 40 min (OD600 = 3.30). A 1 mL aliquot was retained to determine cell number. 150 mL of the culture was centrifuged at 4000 rpm for 10 min at 4 °C. The resulting pellet was resuspended in 10 mL of JB Lysis Buffer (0.1% Triton X-100, 20 mM Tris-HCl, 150 mM KCl, 1 mM MgCl2, 1 mM DTT, and protease inhibitors) and transferred to FastPrep tubes. Cells were mechanically lysed (2 × 30 s, 6.5 m/s) and cooled for 5 min on ice. The samples were centrifuged, and the supernatant was transferred to a new tube. Subsequently, it was centrifuged again at 5000 rpm for 30 min at 4 °C. The pellet was washed three times with 1× PBS, reducing the volume to 1 mL. Protein concentration was determined using the Pierce BCA Protein Assay Kit (Thermo Scientific). The final sample was frozen in liquid nitrogen and stored at −80 °C. 100 μL of this lysate was incubated with 8f–h (final concentration 400 μM, 2% DMSO) for 16 h at 30 °C. Afterward, 100 μL acetonitrile was added, and the samples were passed through a syringe filter. Ten μL of the samples were injected during LC/MS (Agilent 1100 system, LC/MSD trap) using an Agilent Poroshell 120 EC-C18 150 × 2.10 mm 4 μm column; mobile phase (gradient: acetonitrile/H2O, 0.1% formic acid). The LC/MS chromatograms and their corresponding mass spectra (base-peak) were analyzed using MestReNova (12.0.4) for prodrug deprotection products.

| Structure (SMILES) | cleavage in S. aureus lysate | degree of carbamate cleavage to 8h [%] |
| --- | --- | --- |
| O=C(/N=C(\NCCn1cc(-c2c[nH]c3nc[nH]c(=O)c23)nn1)NC(=O)OCc1ccccc1)OCc1ccccc1 [Compound 8f] | readily cleaved | ~30 |
| CC(C)(C)OC(=O)/N=C(\NCCn1cc(-c2c[nH]c3nc[nH]c(=O)c23)nn1)NC(=O)OC(C)(C)C [Compound 8g] | readily cleaved | ~30 |
